Data as given in EP1087941B9, “THIOLESTERS AND USES THEREOF” (THE UNITED STATES OF AMERICA, as represented by THE …, priority 1998, dated 1999).
Like-named read-outs stand apart in the source and are kept apart here.

How the values were obtained:
HIV-1RF = assay: XTT cytoprotection assay (antiviral activity); assay type: cell-based
Text: One exemplary means to determine antiviral activity is with CEM-SS cells and virus (e.g., HIV-1RF) (MOI = 0.01) using the XTT (2,3-bis[2-methoxy- 4-nitro-5-sulfophenyl] -5- [(phenylamino)carbonyl]-2H-tetrazolium hydroxide) cytoprotection assay, as described by Rice (1993) PNAS 90:9721-9724, and Rice (1997) Antimicrob. Agents Chemother. 41:419-426. Briefly, cells are infected with HIV-1RF (or other virus to be tested) in the presence of various dilutions of test compounds (thiolesters and controls). The cultures are incubated for seven days. During this time control cultures without protective compounds (i.e., compounds with anti-viral activity) replicate virus, induce syncytia, and result in about 90% cell death. The cell death is measured by XTT dye reduction. XTT is a soluble tetrazolimn dye that measures mitochondrial energy output, similar to MTT. Positive controls using dextran sulfate (an attachment inhibitor) or 3'-Azido -2'-3'-dideoxythymidine, AZT (a reverse transcriptase inhibitor) are added to each assay. Individual assays are done in duplicate using a sister plate method.
Effective antiviral concentrations providing 50% cytoprotection (EC50), and cellular growth inhibitory concentrations causing 50% cytotoxicity (IC50) are calculated.

HIV-1 NL4-3 = assay: Virucidal (viral inactivation) assay on MAGI-CCR-5 cells; assay type: cell-based
Experimental: The cell-based p24 attachment assay was performed as described in Rice (1995) Science 270:1194-1197. Viral inactivation assays were carried out as described in Rice (1995) Science 270:1194-1197, and Turpin (1997) supra, with minor modifications. Briefly, MAGI-CCR-5 cells were plated (4 x 10^4 cells per well) in flat bottomed 2-cm well plates for 24 h, after which the culture media was removed and compound-treated virus was added. The virus used was obtained by transient transfection of pNL4-3 into HeLa cells yielding the replication competent NL4-3 virus. Virus containing supernatants were treated for 2 h at 37°C after which residual compound was removed by centrifugation (18,000 x g, 1h, 4°C). Virus pellets were resuspended and placed on the MAGI-CCR-5 monolayers and cultured for 48 h. Monolayers were fixed and stained with X-gal solution and blue cells counted.
NCp7 cross-linking is associated with viral inactivation. Whether the ability to crosslink the nucleocapsid protein, as determined by Western blotting, correlated with the ability to inactivate the viruses was tested in a virucidal assay. Virus stocks of HIV-1 NL4-3 were incubated with various thiolester compounds. The virus was obtained by transient transfection of a replication-competent pNL4-3 plasmid into HeLa cells. Residual thiolester was removed by centrifugation. The virus pellet was resuspended in culture media and used to infect MAGI-CCR-5 cells. At 48 hours post-infection, the cells were washed and stained with X-Gal. Compounds 44 and 45 were virucidal with I50 (concentration resulting in 50% virus inactivation) values of 12.3 µM and 13.2 µM, respectively.

Pr^55gag precursor = target: T1, Pr^55gag precursor (Human immunodeficiency virus type 1 group M subtype B, UniProt P03347); assay: Gag precursor cross-linking and processing in TNFα-induced U1 cells, Western blotting; assay type: cell-based, HIV-1; details: for cross-linking of viral precursor polyproteins: TNFα-induced U1 cells, Western blotting; for Pr^55gag precursor processing: after reduction with β-ME, compound 45 at 100 µM
T1 construct: Visualization of viral proteins from TNFα-induced U1 cells by electrophoretic separation and immunoblotting; endogenous in cells; host or cells: TNFα-induced U1 cells (integrated HIV-1 provirus)
Experimental: Thiolester compounds were also tested for their ability to inhibit HIV-1 replication in TNFα-induced U1 and ACH-2 cells. U1 cells were induced with 5 ng/ml of TNFα in the presence of various concentrations of the thiolesters 44, 45 or 47. Forty-eight hours later the cultures were characterized for virus p24 antigen production and cell viability. […] Compound 44 killed 60% of the cells at 200 µM. […] Precursor processing evaluation performed as described by Turpin (1997) Antiviral Chem. Chemother. 8:60-69. Thus, thiolester PATEs initiate intracellular disulfide cross-linking of precursor polyproteins during late phase virus assembly and mediate a direct virucidal effect via an attack on the mature NCp7 retroviral zinc fingers in the cell-free virus.
Virion cross linking was performed as described by Rice (1995) Science 270:1194-1197 and Turpin (1997) Antiviral Chem. Chemother. 8:60-67. Briefly, highly purified HIV-1 MN (11.8 µg total protein) was incubated for 2 hour with concentrations of compound. Virions were concentrated and residual compound was removed by centrifugation (18,000 x g, 1 h, 4°C). The viral pellet was solubilized in 0.5 M Tris-HCl,(pH 6.8), 50% glycerol, 8% SDS and 0.4% bromophenol blue and proteins resolved by Western blotting. Western blotting to detect the expression of HIV-1 proteins in U1 cells or virus pellets for virion cross-linking experiments was carried out as described by Turpin (1996) J. Virol. 70:6180-6189. Briefly, 50 µg of total cellular protein for U1 experiments or the total virion pellet (11.8 µg total viral protein) for NCp7 cross linking studies was resolved on 4 to 20% polyacrylamide gels in SDS with Tris-Glycine (Novex, San Diego CA). Samples for reduced gels were boiled for 5 min in the presence of 5% β-ME prior to loading. Resolved proteins were electroblotted on to polyvinylidene difluoride (PVDF) membranes, and HIV-1 specific proteins were detected using a mixture of goat anti- HIV-1 NCp7 and p24 or anti-NCp7 for virion proteins alone (a kind gift of L. E. Henderson, AIDS Vaccine Program NCI-FCRDC, Frederick, MD). Western blots were developed using standard chemiluminescence methodologies, as produced and described by Dupont-NEN, Wilmington, DE.

[1] = Human immunodeficiency virus 1, Table 5, XTT cytoprotection assay, read-out: Antiviral Activity EC50
[2] = Human immunodeficiency virus 1, Table 6, XTT cytoprotection assay, read-out: Antiviral Activity EC50%
[3] = Human immunodeficiency virus 1, NL43, MAGI-CCR5, read-out: Virucidal Activity (I50 µM)
[4] = Human immunodeficiency virus 1, NL43, MAGI-CCR5, read-out: virucidal I50 (concentration resulting in 50% virus inactivation)

`CC(=O)NS(=O)(=O)c1ccc(NC(=O)c2ccccc2SC(=O)CCCCBr)cc1` [Compound 44, N-[2-(5-bromovaleroylthio)benzoyl]sulfacetamide] was tested. Which EC50 (HIV-1RF; [1]) did it give?
Its EC50 is 3.8 µM.

And the EC50 (HIV-1RF; [2])?
The EC50 was 38 µM.

And the IC50 (HIV-1 NL4-3; [3])?
Its IC50 is 12.3 µM.

And the IC50 (HIV-1 NL4-3; [4])?
Its IC50 is 12.3 µM.

And the “cross-linking of viral precursor polyproteins” value (Pr^55gag precursor)?
Its value is “induced β-ME reversible alterations in the mobility of zinc finger containing HIV-1 precursor proteins”.

What does the source list for `CC(=O)NS(=O)(=O)c1ccc(NC(=O)c2ccccc2SC(=O)CCCC[n+]2ccccc2)cc1` [Compound 45, N-[2-(5-pyridinio-valeroylthio)benzoyl]sulfacetamide bromide]?
EC50 (HIV-1RF; Human immunodeficiency virus 1, read-out: EC50 (concentration inhibiting 50% virus replication)): < 10 µM; EC50 (HIV-1RF; [1]): 6.2 µM; EC50 (HIV-1RF; [2]): 6.2 µM; IC50 (HIV-1 NL4-3; [3]): 13.2 µM; IC50 (HIV-1 NL4-3; [4]): 13.2 µM; cross-linking of viral precursor polyproteins (Pr^55gag precursor): induced cross-linking of viral precursor polyproteins; Pr^55gag precursor processing (Pr^55gag precursor): inhibited Pr^55gag precursor processing

`O=C(CCCC[n+]1ccccc1)Sc1ccccc1C(=O)Nc1ccc(S(=O)(=O)c2ccc([N+](=O)[O-])cc2)cc1` [Compound 47] was tested. Which EC50 (HIV-1RF; Human immunodeficiency virus 1, read-out: Antiviral Activity EC50%) did it give?
Its EC50 is 5.5 µM.

What about the IC50 (HIV-1 NL4-3; [3]) of the same molecule?
Its IC50 is 2.1 µM.

And the IC50 (HIV-1 NL4-3; [4])?
The IC50 was 2.1 µM.

And the “cross-linking of viral precursor polyproteins” value (Pr^55gag precursor)?
Its value is “induced cross-linking of viral precursor polyproteins”.

And the “Pr^55gag precursor processing” value (Pr^55gag precursor)?
Its value is “inhibited Pr^55gag precursor processing”.
